In patent EP4389746A2, “P2X3 RECEPTOR ANTAGONISTS” (Recordati Industria Chimica E Farmaceutica SPA, priority 2022, dated 2024):

Tests used:
human P2X2/3 receptor = biological target: T1, human P2X2/3 receptor (Homo sapiens, UniProt P56373+Q9UBL9); test: Calcium fluorescence measurement: human P2X2/3 receptor activity inhibition (CHO-K1 cells, Fluo-8 NoWash, […]); type: cell-based
T1 construct: expressed in transfected cells; host or cells: CHO-K1
T1 sequence (P56373 1-397): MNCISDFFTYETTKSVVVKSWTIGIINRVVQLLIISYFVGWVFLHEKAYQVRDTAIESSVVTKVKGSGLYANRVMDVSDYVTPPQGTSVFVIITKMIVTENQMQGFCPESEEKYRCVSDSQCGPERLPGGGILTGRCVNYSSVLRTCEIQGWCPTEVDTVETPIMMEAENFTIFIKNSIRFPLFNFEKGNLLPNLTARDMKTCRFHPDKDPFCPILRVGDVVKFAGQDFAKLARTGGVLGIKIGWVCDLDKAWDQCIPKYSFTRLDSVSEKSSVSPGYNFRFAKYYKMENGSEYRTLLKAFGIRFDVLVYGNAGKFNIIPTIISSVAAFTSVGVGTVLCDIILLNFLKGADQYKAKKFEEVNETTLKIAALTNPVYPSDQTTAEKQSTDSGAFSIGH
T1 sequence (Q9UBL9 1-471): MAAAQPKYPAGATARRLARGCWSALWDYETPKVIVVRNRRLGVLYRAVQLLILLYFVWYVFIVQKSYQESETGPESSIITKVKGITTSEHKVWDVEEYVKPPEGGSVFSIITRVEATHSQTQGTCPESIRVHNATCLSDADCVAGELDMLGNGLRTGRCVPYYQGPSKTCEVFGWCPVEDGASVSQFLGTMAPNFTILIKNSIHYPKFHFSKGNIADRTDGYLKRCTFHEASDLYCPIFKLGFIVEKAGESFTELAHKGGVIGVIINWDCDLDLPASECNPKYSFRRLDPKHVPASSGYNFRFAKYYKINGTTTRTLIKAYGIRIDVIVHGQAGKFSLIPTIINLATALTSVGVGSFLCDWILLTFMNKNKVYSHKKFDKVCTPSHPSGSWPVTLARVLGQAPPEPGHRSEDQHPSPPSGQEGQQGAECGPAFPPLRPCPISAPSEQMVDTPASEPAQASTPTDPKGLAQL
Description: Determination of human P2X2/3 receptor activity inhibition
The assay for the human P2RX2/X3 has been evaluated by the screening instrumentation using the […] as reader and the FLUO8-NoWash dye as fluorescent readout for calcium detection.
CHO-K1 cells recombinantly expressing the human P2RX2/X3 channel are maintained in DMEM F-12 (1:1) mixture (LONZA cat. n°: BE04-687F/U1) supplemented with 5 mL of 100 mM Sodium Pyruvate (LONZA cat. n° BE13-115E), 25 mL of 7.5% Sodium Bicarbonate (LONZA cat. n° BE17-613E), 6.5 mL of 1M Hepes (LONZA cat. n° BE17-737E), 5 mL of 100X Penicillin/Streptomycin mixture (LONZA cat. n° DE17-602E) and 50 mL of Fetal Bovine Serum (Sigma cat. n° F7524), 5 µg/mL Puromycin dihydrochloride (Sigma cat. n° P9620) and 1 mg/ml G418 disulfate salt (Sigma cat. n° G8168).
Cells were seeded into black-walled clear bottom 384 Multiwell plates at a density of 10.000 cells/well in complete medium. After 24 h the culture medium was replaced with 20 µL/well of Fluo-8 NoWash calcium sensitive dye (AAT Bioquest cat. n° 36316) diluted in Tyrode's buffer (Standard Tyrode's buffer: in house solution, 130 mM NaCl, 5 mM KCl, 2 mM CaCl2, 5 mM NaHCO3, 1 mM MgCl2, 20 mM HEPES, pH 7.4).
The plates were incubated for 1 hours at 37°C and injected with 10 µL/well of test compounds at 3X concentration in Tyrode's buffer with the […]. After 5 minutes a second injection of 15 µL/well of 10µM α,β-Met-ATP in Tyrode's buffer (α,β-Met-ATP: from Tocris cat. n° 3209) was performed and the signal of the emitted fluorescence was recorded by […] (Molecular Devices).
The selectivity is expressed as the ratio of IC50 of P2X2/3/ P2X3 receptors. Table 8: Human P2X3 and h-P2X2/3 receptor antagonist activity for selected compounds of the invention.

C57BL/6J mice = test: Scratching model: inhibition of ATP induced pruritus in mouse; type: in vivo
Description: (§1) C57BL/6J mice, Hartley Guinea pigs and Sprague-Dawley Rats from Charles River Italy were used in the experiments. Animals were housed with free access to food and water and maintained on a forced 12 hr light-dark cycle at 22-24°C for at least one week before the experiments were carried out. The animals were handled according to internationally accepted principles for care of laboratory animals (Directive 2010/63/EU of the European Parliament and of the Council of 22 September 2010).
"Scratchng model" - Inhibition of ATP induced pruritus in mouse
Mice were shaved at the rostral back the day before injection. The day of the experiment, an intradermal injection of the irritant agent α,β-meATP 200 µg/50 µL (Sigma, Italy) into the skin was performed. The hind limb scratching behavior directed toward the injection site, was recorded. One bout was defined as the lifting of the hindlimb toward the injection site and then placing the limb back on the floor. The number of bouts were counted for a period of 30 minutes. The Example 22 compound investigated was injected intraperitoneally 30 min before the administration of the irritant agent. (Fig. 2)
In the scratching model the results are presented as mean ± SEM of the values. Statistical analysis was performed using one-way ANOVA and Dunnet's test for multiple comparisons. The ED35 of the tested compounds was determined by linear regression analysis of bouts (Graphpad v5).

Hartley Guinea pigs = test: Cough model: inhibition of citric acid induced cough in guinea pig; type: in vivo; conditions: intraperitoneally 30 min before nebulization of citric acid 0.4 M, compared with vehicle (Fig. 3)
Description: as §1
"Cough model" - Inhibition of citric acid induced cough in guinea pig
Conscious guinea pigs were placed in the transparent chamber of the whole-body plethysmograph (EMKA) and allowed to move freely. The number of coughs was registered by the IOX2 software for 10 minutes during and 10 minutes after the nebulization of citric acid 0.4 M. Example 22 was injected intraperitoneally 30 min before the nebulization of citric acid. (see Fig. 3) In cough model the results are presented as mean ± SEM of the values. Statistical analysis was performed using one-way ANOVA and Dunnet's test for multiple comparisons.

Sprague-Dawley Rats = test: Two bottle taste test in rats: dysgeusia effect of P2X3 antagonists; type: in vivo; conditions: rats water fasted overnight; bottles presented 30 minutes after treatment for 15 minutes (Fig. 4)
Description: as §1
(Fig 3) "Two bottle taste test" in rats - Dysgeusia effect of P2X3 antagonists
Rats were water fasted overnight. The day of the experiment the animals were treated with tested compounds and 30 minutes later two bottles were presented for 15 minutes, the first one containing water and the second bottle containing Quinine, a substance showing a bitter taste. The volume of liquid drunk in 15 minutes from each bottle was recorded and expressed as percentage of preference (Fig.4). Statistical analysis was performed on absolute values (mean ± SEM) using one-way ANOVA and Tukey's test for multiple comparisons.

## CC(C)C1C(=O)N=C2c3ncc(N4CCOCC4)cc3N(Cc3ccc(Cl)cc3)C(=O)N21 (racemic) [Example 22, 6-[(4-Chlorophenyl)methyl]-8-(morpholin-4-yl)-3-(propan-2-yl)imidazo[1,2-c]pyrido[2,3-e]pyrimidine-2,5(3H,6H)-dione]
Human P2X2/3 receptor; CHO-K1 cells expressing human P2RX2/X3 channel, 10µM α,β-Met-ATP, read-out: h-P2X2/3 IC50
  IC50: 18.8 µM
Human P2X2/3 receptor; ratio of IC50 of P2X2/3/ P2X3 receptors
  Selectivity: 510
C57BL/6J mice; dose inhibiting the 35% of number of bouts, intraperitoneally 30 min before α,β-meATP 200 µg/50 µL intradermal, bouts counted for 30 minutes
  ED35: 10.62 mg/kg
C57BL/6J mice; intraperitoneally 30 min before α,β-meATP, vs vehicle group (Fig. 2)
  number of bouts: reduce the number of bouts significantly and in a dose-related manner
Hartley Guinea pigs
  number of coughs: significantly reduced the number of coughs both during and after the nebulization of citric acid
Sprague-Dawley Rats
  preference between water and Quinine: showed a clear preference for water in comparison to Quinine
